# Experimental data taken from patent publication US20200352976A1, “HYPOMETHYLATING AGENTS FOR USE IN TREATMENT OF CANCER” (Otsuka Pharmaceutical Co., Ltd, priority 2019, published 2020).
# “And” between values parts separate entries of the source, which are not always exact repeats. Equal entries are not always repeated.
# Tested on: treatment naïve acute myeloid leukemia (TN-AML)
# Assay: Phase 3 randomized trial Compound I-1 vs treatment choice: CR, OS, PFS, EFS, subgroup analyses
# Assay type: in vivo, human
# Settings: for EFS HR (95% CI) / PFS HR (95% CI): Compound I-1/TC
# Description: A Phase 3 randomized trial comparing Compound I-1 to a treatment choice of azacitidine, decitabine, or Low Dose Ara-C(LDAC) in patients with AML was performed.
# The patients were randomized 1:1 to either Compound I-1 (60 mg/m^2/d subcutaneous injection for 5 days of a 28-day cycle), or a preselected treatment choice of azacitidine, decitabine, or LDAC at standard doses. AML diagnosis and response status were assessed by an independent blinded central pathologist. CR and OS were the co-primary endpoints.
# Compound I-1 powder was reconstituted at a concentration of 100 mg/mL and administered subcutaneously (SC) at a dose of 60 mg/m^2 daily on days 1-5 of a 28-day cycle.
# LDAC was given at a dose of 20 mg SC twice daily (BID) on days 1-10 of a 28-day cycle. Decitabine was given at a dose of 20 mg/m^2 as a 1-hour intravenous (IV) infusion on days 1-5 of a 28-day cycle. Azacitidine was given IV or SC daily on days 1-7 of a 28-day cycle at a dose of 75 mg/m^2. Other TC treatment parameters such as dose adjustment guidelines followed locally approved prescribing information and institutional standard practice.
# Two co-primary endpoints were used: complete response (CR) rate based on modified International Working Group (IWG) 2003 AML Response Criteria and OS (the number of days from randomization to death). Secondary endpoints included CRc (CR+CR with incomplete blood count recovery [CRi]+CR with incomplete platelet recovery [CRp]) rate, number of days alive and out of the hospital (NDAOH), progression-free survival (PFS), health related quality of life (QOL) by EQ-5D (consisting of the EQ-5D-5L descriptive system and the EQ Visual Analogue Scale [EQ VAS]), duration of CR (the time from first CR to time of relapse), incidence and severity of adverse events (AEs), and 30- and 60-day all-cause mortality.
# CR rate was compared between Compound I-1 and TC groups using Cochran Mantel-Haenszel test at an alpha of 0.04, stratified by the stratification factors used at randomization. OS curves were estimated using Kaplan-Meier (K-M) method and formally compared between Compound I-1 and TC groups using a 2-sided stratified log-rank test, stratified by the same stratification factors used at randomization. Sensitivity analyses were conducted for CR rate and OS to evaluate the robustness of the treatment effect.
# CRc rate was compared between treatment groups using a Cochran Mantel-Haenszel test with the same stratification variable as for CR and OS. NDAOH was compared between treatment groups using an analysis of variance model (ANOVA) with stratification variables used as fixed factors. PFS was compared between treatment groups using a stratified log-rank test.
# The number of RBC and platelet transfusions up to Day 180 were summarized descriptively. 95% CI of the mean was also provided. The EQ-5D-5L index values and EQ VAS up to Day 180 were analyzed descriptively and using a mixed model approach for repeated measures.
# Data obtained during the trial of EXAMPLE 4 were further analyzed for selected subgroups of patients including patients who achieved CR in patients who received at least 4 or 6 treatment cycles.
# TN-AML patients ineligible for intensive chemotherapy (IC) due to age ≥75 y, coexisting morbidities, or ECOG PS 2-3 were randomized 1:1 to either Compound I-1 (60 mg/m^2/d SC for 5-days Q28 days) or a preselected treatment choice (TC) of azacitidine (AZA), decitabine (DEC), or low-dose Ara-C(LDAC) at the prescribed dosing schedule. AML diagnosis and response status were assessed by an independent central pathologist blinded to randomization assignment. Complete response (CR) and overall survival (OS) were the co-primary endpoints. The patients' characteristics, number of treatment cycles, reasons for treatment discontinuation, CR, and OS including analyses by number of cycles received including prospective subgroups, and OS analyses of responders and non-responders were analyzed. […]
# [1] = number of days alive and out of the hospital
# [2] = patients with at least 4 cycles
# [3] = patients with at least 4 cycles (n = 476)
# [4] = patients with at least 6 cycles
# [5] = patients with at least 6 cycles (n = 375)
smiles,measurement,setting,value
Nc1ncn([C@H]2CC(OP(=O)(O)OC[C@H]3O[C@@H](n4cnc5c(=O)[nH]c(N)nc54)CC3O)[C@@H](CO)O2)c(=O)n1 (stereo partly shown) [Compound I-1],CR odds ratio (logistic regression),Compound I-1 vs TC,1.14
same,CR rate Treatment Difference,Compound I-1 vs TC,1.92%
same,CRc rate Treatment Difference,Compound I-1 vs TC,0.39
same,NDAOH LS Mean Treatment Difference,Compound I-1 vs TC,−7.8
same,Overall survival hazard ratio,Compound I-1 vs each treatment choice,less than 1
same,12-month survival rate,ITT,37%
same,24-month survival rate,ITT,18%
same,Median PFS,ITT,5.3 months
same,"Overall Survival K-M Estimate, 25th percentile",ITT,71.0 days
same,"Overall Survival K-M Estimate, 75th percentile",ITT,584.0 days
same,"Overall Survival K-M Estimate, Median",ITT,213 days and 213.0 days
same,"PFS K-M Estimate, Median",ITT,159 days
same,"Survival, 75th percentile",ITT,19.5 months
same,Median EFS,ITT Population (n = 815),5.1 months
same,Median OS,ITT Population (n = 815),7.1 months
same,EFS HR (95% CI),ITT Population,"0.85 (0.74-0.98), p 0.02"
same,PFS HR,"ITT, Compound I-1 vs TC","0.99 (0.86-1.15), p 0.93"
same,12-month survival rate,"ITT, as fraction",0.37
same,24-month survival rate,"ITT, as fraction",0.18
same,CRc (CR + CRi + CRp),"ITT, N = 408 / 407",93 subjects
same,Complete Response (CR),"ITT, N = 408 Compound I-1, N = 407 TC",79 subjects
same,Overall survival hazard ratio,"baseline TP53 mutations (94 patients), Compound I-1 vs treatment choice",1.8
same,Median duration of CR,complete responders,7.2 months
same,EQ VAS LS mean change from baseline,first 6 months,0.87
same,"Platelet transfusions, mean",first 6 months,12.5 units
same,"RBC transfusions, mean",first 6 months,16.2 units
same,Index EQ-5D-5L score LS mean difference,"first 6 months, Compound I-1 vs TC",−0.019
same,Mean NDAOH over 6 months,in vivo,3.3 months
same,NDAOH per patient-year rate,in vivo,297 days
same,One-year survival rate,"landmark analysis (approximately 4 months), at least 4 cycles",51%
same,Overall survival hazard ratio,"landmark analysis, greater than 3 treatment cycles, Compound I-1 vs TC",0.78
same,Treatment Discontinuation Before 4 Cycles: Progressive Disease,"n = 408 I-1, n = 407 TC",7.6%
same,Treatment Discontinuation Before 6 Cycles: Progressive Disease,"n = 408 I-1, n = 407 TC",10.8%
same,OS HR,"non-responders, at least 6 cycles, Compound I-1 vs TC",0.73
same,"NDAOH in First 6 Months, LS Mean",[1],98.9
same,"NDAOH in First 6 Months, Mean",[1],98.1
same,Median EFS,"patients who achieved an objective response (CR, CRp, CRi, or PR)",17.4 m
same,EFS HR,"patients who achieved an objective response, Compound I-1 vs TC",0.68
same,Median OS,[2],15.6 months
same,CR Rate,patients with at least 4 cycles (n = 235 I-1; n = 241 TC),33.6%
same,Median EFS,[3],12.1 months
same,Median PFS,[3],10.3 months
same,EFS HR (95% CI),[2],"0.74 (0.61-0.9), p 0.002"
same,PFS HR (95% CI),[2],"0.88 (0.73-1.06), p 0.17"
same,OS HR (95% CI),"patients with at least 4 cycles, Compound I-1 vs TC","0.78 (0.64, 0.96), p 0.02 and 0.78 (0.64-0.96), p 0.02"
same,Median OS,[4],19.5 months
same,CR Rate,patients with at least 6 cycles (n = 187 I-1; n = 188 TC),40.1%
same,Median EFS,[5],14.9 months
same,Median PFS,[5],11.9 months
same,EFS HR (95% CI),[4],"0.69 (0.56-0.86), p 0.001"
same,PFS HR (95% CI),[4],"0.86 (0.7-1.07), p 0.17"
same,OS HR (95% CI),"patients with at least 6 cycles, Compound I-1 vs TC","0.69 (0.54, 0.88), p 0.002 and 0.69 (0.54-0.88), p 0.002"
same,OS HR,"responders (CR, CRp, CRi, or PR), at least 6 cycles, Compound I-1 vs TC",0.66
same,OS HR,"subjects who achieved any CR (CR, CRp, or CRi), Compound I-1 vs TC, post hoc",0.72
same,Overall survival hazard ratio,"without TP53 mutations (696 patients), Compound I-1 vs treatment choice",0.86
